What all share (assay): growth of human tumour cells (NCI), 48 h
The subject of experiment [1] is CAKI-1.
For experiment [2], the system named is CCRF-CEM.
For experiment [3], the system named is EKVX.
The subject of experiment [4] is HOP-92.
Experiment [5] deals with HT-29.
Experiment [6] deals with M14.
Experiment [7] concerns Malme-3M.
Experiment [8] deals with NCI-H23.
In experiment [9] the test system is NCI-H460.
Experiment [10] relates to OVCAR-3.
In experiment [11] the test system is OVCAR-4.
Experiment [12] concerns SF-295.
Experiment [13] concerns SF-539.
Experiment [14] relates to SK-MEL-2.
In experiment [15] the test system is SNB-75.
The test system of experiment [16] is HL-60.
For experiment [17], the system named is LOX IMVI.
For experiment [18], the system named is RXF 393.

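Exposure lasted 48 hours, with cells grown in 96-well plates and compounds tested at five concentrations. At the GI50, growth is halved.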 Activity calls are given as the source filed them. Cut-off read from the data, not from the text of the source: active = GI50 up to about 1.1 µM and inactive = higher.

Consider `COc1ccc2c(c1)CC1c3c(cc4c(c3-2)OCO4)CCN1C` (configuration not stated), for which the GI50 was 23.9 µM (inactive) in experiment [1]; 23 µM (inactive) in experiment [2]; 33.4 µM (inactive) in experiment [3]; 18.1 µM (inactive) in [4]; 27.7 µM (inactive) in experiment [5]; 22.8 µM (inactive) in [6]. The GI50 in [7] is 28 µM (inactive); in experiment [8] it was 23.8 µM (inactive); in experiment [9], 24.3 µM (inactive); in experiment [10], 32.5 µM (inactive); in [11], 23.1 µM (inactive); in experiment [12], 21.6 µM (inactive). Moreover, the GI50 in experiment [13] is 31.3 µM (inactive); in experiment [14] it was 26.5 µM (inactive); in experiment [15] it was 22.6 µM (inactive).

For `COC(=O)C1C=NNC1C(=O)OC` (configuration not stated), the GI50 in experiment [1], in experiment [2], in experiment [3], in experiment [16], in experiment [5] and in experiment [17] was > 100 µM (inactive) each time. The GI50 in experiment [6], in [7], in [8], in experiment [9], in experiment [10] and in experiment [11] was > 100 µM (inactive) throughout. The GI50 in experiment [18], in [12], in experiment [13], in [14] and in experiment [15] was > 100 µM (inactive) each time.

Consider `O=C(O)CSc1nnc(-c2ccccc2)[nH]1`, for which the GI50 in experiment [1], in experiment [2], in experiment [3], in [16], in experiment [5] and in experiment [17] was > 100 µM (inactive) throughout. Moreover, the GI50 in experiment [6], in experiment [7], in [8], in [9], in [10] and in [11] was > 100 µM (inactive) in each case. Also, the GI50 in experiment [18] is > 100 µM (inactive); in experiment [12], > 100 µM (inactive); in experiment [13], > 100 µM (inactive); in experiment [14] it was > 100 µM (inactive); in experiment [15], 37.2 µM (inactive).

Regarding `CCOc1ccc(/N=N/c2ccc3oc(=O)c(C(=O)Nc4ccc(OC)cc4)cc3c2)cc1`, the GI50 in experiment [1] was 11 µM (inactive); in experiment [2] it was 2.36 µM (inactive); in experiment [3] it was 26.6 µM (inactive); in experiment [16], 2.88 µM (inactive); in experiment [5], 42.5 µM (inactive); in [17] it was 11.4 µM (inactive). Further, the GI50 in experiment [6] is > 10 µM (inactive); in experiment [7], 30.1 µM (inactive); in [8], 19.7 µM (inactive); in experiment [10], 19.5 µM (inactive); in experiment [11], 7.1 µM (inactive); in experiment [12], 31.2 µM (inactive). The GI50 in experiment [13] is 20.2 µM (inactive); in [14], 18.6 µM (inactive); in experiment [15] it was 33.7 µM (inactive).

Turning to `O=C(/C=C/c1ccccc1O)c1cccnc1`, the GI50 in experiment [1], in experiment [2], in experiment [3], in [16], in [5] and in [17] was > 100 µM (inactive) each time. Also, the GI50 in [6] is > 100 µM (inactive); in experiment [7], > 100 µM (inactive); in [8] it was 51.3 µM (inactive); in [9], > 100 µM (inactive); in experiment [10], > 100 µM (inactive); in experiment [11], > 100 µM (inactive). Moreover, the GI50 in experiment [18], in experiment [12], in experiment [13], in experiment [14] and in experiment [15] was > 100 µM (inactive) each time.

As to `Nc1ccc(C(=O)NN2C(=O)C(Cl)C2c2ccccc2O)cc1` (configuration not stated), the GI50 in experiment [1] is 47.8 µM (inactive); in [2], 6.01 µM (inactive); in experiment [3], 49.3 µM (inactive); in experiment [16], 1.15 µM (inactive); in experiment [4] it was > 100 µM (inactive); in [5], > 100 µM (inactive). The GI50 is 18.8 µM (inactive) in [17]; 24 µM (inactive) in experiment [6]; > 100 µM (inactive) in [7]; > 100 µM (inactive) in experiment [8]; 21.4 µM (inactive) in experiment [9]; 31.7 µM (inactive) in [10]. The GI50 in experiment [11] is 60.1 µM (inactive); in experiment [12], 47.2 µM (inactive); in experiment [13] it was 85.9 µM (inactive); in experiment [14], > 100 µM (inactive); in experiment [15], 52.2 µM (inactive).

Consider `CC(=O)Oc1c(Br)ccc2cc(C(Br)Br)c(C(=O)c3ccccc3)nc12`, for which the GI50 in experiment [1] is 3.78 µM (inactive); in experiment [3], 22.5 µM (inactive); in experiment [5], 19.2 µM (inactive); in experiment [17], 23.9 µM (inactive); in experiment [6], 21.2 µM (inactive); in experiment [7], 24.9 µM (inactive). In addition, the GI50 was 20 µM (inactive) in [8]; 19.9 µM (inactive) in experiment [9]; > 10 µM (inactive) in [10]; 5.01 µM (inactive) in experiment [11]; 17.9 µM (inactive) in experiment [18]; 18.7 µM (inactive) in experiment [12]. Besides, the GI50 in experiment [13] was 18.6 µM (inactive); in experiment [14], 20.7 µM (inactive); in experiment [15] it was 20.5 µM (inactive).

With `O=C(O)CCC1CCc2cccc(OCC(=O)O)c2C1=O` (configuration not stated), the GI50 in experiment [1], in experiment [2], in experiment [3], in experiment [16], in [4] and in [5] was > 100 µM (inactive) throughout. In addition, the GI50 in [17], in experiment [6], in experiment [8], in experiment [9], in [10] and in experiment [11] was > 100 µM (inactive) each time. The GI50 in experiment [18], in experiment [12], in experiment [13] and in [15] was > 100 µM (inactive) throughout.

On to `C=C(C)C1CC[C@]2(C(=O)O)CCC3(C)[C@H](CCC4[C@@]5(C)CC[C@H](OC6OC(CO)C(O)C6OC6OC(C)C(O)C(O)C6O)[C@@](C)(CO)C5CC[C@]43C)C12` (some centres not stated), for which the GI50 in experiment [2], in [3], in experiment [16], in experiment [5], in experiment [17] and in experiment [6] was > 100 µM (inactive) in each case. The GI50 in experiment [8], in [9], in [10], in [11], in [18] and in experiment [12] was > 100 µM (inactive) in each case. Also, the GI50 in experiment [13], in experiment [14] and in experiment [15] was > 100 µM (inactive) throughout.

For `CCCCC1CC(c2cccc([N+](=O)[O-])c2)=NO1` (configuration not stated), the GI50 is 63.5 µM (inactive) in experiment [1]; 48.5 µM (inactive) in experiment [2]; 58.2 µM (inactive) in [3]; 30.4 µM (inactive) in experiment [16]; > 100 µM (inactive) in [4]; 28.6 µM (inactive) in [5]. Moreover, the GI50 in experiment [6] is > 100 µM (inactive); in experiment [7] it was > 100 µM (inactive); in experiment [8], 80.9 µM (inactive); in [9] it was 75.5 µM (inactive); in experiment [10], 76.2 µM (inactive); in [11], > 100 µM (inactive). For the same molecule, the GI50 in [12] was 97.7 µM (inactive); in experiment [13] it was > 100 µM (inactive); in [14], > 100 µM (inactive); in experiment [15], > 100 µM (inactive).

For `COc1nc(NC2OCC(OC(C)=O)C(OC(C)=O)C2OC(C)=O)c(/N=C\C=N\c2c(NC3OCC(OC(C)=O)C(OC(C)=O)C3OC(C)=O)nc(OC)n(C)c2=O)c(=O)n1C` (configuration not stated), the GI50 in experiment [3], in experiment [16], in experiment [4], in [5], in experiment [17] and in experiment [6] was > 100 µM (inactive) in each case. In addition, the GI50 in experiment [7], in experiment [8], in experiment [9], in experiment [10], in [11] and in experiment [18] was > 100 µM (inactive) each time. Also, the GI50 in experiment [12], in [13], in experiment [14] and in [15] was > 100 µM (inactive) throughout.

On to `CC(C)=C1CCC(CN(C)C)C1=O` (configuration not stated), for which the GI50 in [2] was 8.95 µM (inactive); in experiment [3] it was 17.7 µM (inactive); in [16], 3.61 µM (inactive); in [4] it was 20.9 µM (inactive); in experiment [5], 20.6 µM (inactive); in experiment [6] it was 14.4 µM (inactive). Further, the GI50 in experiment [7] is 16.3 µM (inactive); in [8], 35.7 µM (inactive); in experiment [9], > 100 µM (inactive); in experiment [10], 17.6 µM (inactive); in experiment [11], 15 µM (inactive); in experiment [18], 18.6 µM (inactive). The GI50 in [12] is > 100 µM (inactive); in [13], > 100 µM (inactive); in [14], 26.3 µM (inactive); in experiment [15], 0.234 µM (active).

Source of the values: ChEMBL document CHEMBL1201862, “PubChem BioAssay data set” (2004).
